The text below walks through data of patent publication US20250099475A1, “METHODS OF TREATING HYPERTENSION BY PERIODIC SUPPRESSION OF ALDOSTERONE SYNTHASE” (Mineralys Therapeutics, Inc., priority 2022, published 2025).

Broadly, the IC50 is the concentration that gives 50% inhibition. Usually inhibition stands for the percentage by which the read-out fell short of the control.

Molecules are shown by their SMILES. “Also recorded” adds a separate entry of the source.

The subject of data set [1] is subjects with hypertension. Put plainly: Double-blinded, randomized, placebo-controlled trial in subjects with hypertension (Example 2; AOBP week 4, serum K+). Type of data set: in vivo, human. The method, then: A double-blinded, randomized, placebo-controlled trial on the safety and efficacy of Compound A HBr was conducted on subjects with hypertension.
Hypertensive subjects were randomly assigned to one of the following six experimental groups: • (a) Placebo group: Oral administration of a placebo tablet matched for size, color, and shape of study drug once in the morning each day; • (b) 12.5 mg BID: Oral administration of one tablet containing 12.5 mg of Compound A HBr once in the morning and evening, 12 hours apart each day; • (c) 25 mg BID: Oral administration of one tablet containing 25 mg of Compound A HBr once in the morning and evening, 12 hours apart each day; • (d) 12.5 mg QD: Oral administration of one tablet containing 12.5 mg of Compound A HBr once in the morning each day; • (e) 50 mg QD: Oral administration of two tablets containing 25 mg of Compound A HBr once in the morning each day; and • (f) 100 mg QD: Oral administration of one tablet containing 100 mg of Compound A HBr once in the morning each day.
Subjects in the study met the following inclusion criteria: • (a) Male and nonpregnant, nonlactating female subjects ≥18 years of age; • (b) Written informed consent Health Insurance Portability and Accountability Act authorization, and local patient privacy required documentation for this study have been obtained; • (c) Automated office blood pressure (AOBP) with SBP ≥130 mm Hg; • (d) Background antihypertensive treatment of ≥2 drugs; • (e) PRA ≤1.0 ng/mL; • (f) Serum aldosterone ≥1 ng/dL; and • (g) Morning serum cortisol in normal range. If baseline serum cortisol <18 mcg/dL, then baseline Cortrosyn stimulation test administered at baseline.
Prospective subjects were also excluded based on the following exclusion criteria: • (a) Concomitant use of epithelial sodium channel inhibitors or mineralocorticoid receptor antagonists; • (b) Subjects with hypokalemia; • (c) Subjects with hyperkalemia; • (d) Subjects with serum cortisol <3 mcg/dL; • (e) Subjects with serum sodium <135 mEq/L; • (f) Subjects with estimated glomerular filtration rate <60 mL/min/1.73 m2; • (g) Subjects with type 1 or uncontrolled (hemoglobin A1c ≥9%) type 2 diabetes mellitus; • (h) Subjects with body mass index >40 kg/m2; • (i) Subjects with unstable angina; • (j) Subjects with SBP ≥175 mm Hg or DBP ≥100 mm Hg; • (k) Subjects with a decrease in SBP ≥20 mm Hg or DBP ≥10 mm Hg from sitting to standing position; • (l) Subjects who, in the opinion of the investigator, have suspected nonadherence to antihypertensive treatment; • (m) Subjects who, in the opinion of the investigator, have any major medical illness or symptoms; • (n) Subjects who, in the opinion of the investigator, have any acute or chronic medical or psychiatric condition; • (o) Subjects undergoing treatment with any of the following medications: • (i) Topical corticoids; • (ii) Sympathomimetic decongestants; • (iii) Theophylline; • (iv) Phosphodiesterase type 5 inhibitors; • (v) NSAIDs; • (vi) Intramuscular steroids; • (vii) Estrogen; • (viii) Cytochromes; • (ix) Strong CYP3A and CYP3A4 inducers; • (p) Subjects with known hypersensitivity to Compound A HBr or any of the excipients; and • (q) Subjects who are night-shift workers.

The test system of data set [2] is plasma cortisol concentrations (PCCs). The data set is described as follows: ACTH-treated cynomolgus monkey model. It counts as in vivo. As for the experimental part:
An adrenocorticotropic hormone (ACTH)-treated cynomolgus monkey model was performed to evaluate the effect of Compound A on plasma cortisol concentrations (PCCs). A dose of Compound A, as free base, that was 100-fold higher than required to reduce PACs (0.3 mg/kg by mouth) was administered, followed immediately by ACTH (50 μg/kg subcutaneously). PACs were also evaluated in the animals. PACs and PCCs were determined by radioimmunoassay and measured during the 24 hours after Compound A administration.

Data set [3] addresses T1, hERG channel (Homo sapiens, UniProt Q12809).
T1 construct: expressed in transfected cells; host or cells: HEK293 cells stably expressing hERG
Put plainly: Effects on hERG current, whole-cell patch-clamp in HEK293 cells. It counts as cell-based. As for the experimental part: The effects of Compound A on the human ether-à-go-go-related gene (hERG) current were evaluated using the whole-cell patch-clamp method in human embryonic kidney (HEK293) cells stably expressing the hERG channel. Cells were treated with Compound A at concentrations of 1, 3, 10, and 30 μmol/L, positive control (E-4031) at 0.1 μmol/L, or vehicle (0.3 v/v % dimethyl sulfoxide) for 10 minutes.

T1 sequence (Q12809 whole entry): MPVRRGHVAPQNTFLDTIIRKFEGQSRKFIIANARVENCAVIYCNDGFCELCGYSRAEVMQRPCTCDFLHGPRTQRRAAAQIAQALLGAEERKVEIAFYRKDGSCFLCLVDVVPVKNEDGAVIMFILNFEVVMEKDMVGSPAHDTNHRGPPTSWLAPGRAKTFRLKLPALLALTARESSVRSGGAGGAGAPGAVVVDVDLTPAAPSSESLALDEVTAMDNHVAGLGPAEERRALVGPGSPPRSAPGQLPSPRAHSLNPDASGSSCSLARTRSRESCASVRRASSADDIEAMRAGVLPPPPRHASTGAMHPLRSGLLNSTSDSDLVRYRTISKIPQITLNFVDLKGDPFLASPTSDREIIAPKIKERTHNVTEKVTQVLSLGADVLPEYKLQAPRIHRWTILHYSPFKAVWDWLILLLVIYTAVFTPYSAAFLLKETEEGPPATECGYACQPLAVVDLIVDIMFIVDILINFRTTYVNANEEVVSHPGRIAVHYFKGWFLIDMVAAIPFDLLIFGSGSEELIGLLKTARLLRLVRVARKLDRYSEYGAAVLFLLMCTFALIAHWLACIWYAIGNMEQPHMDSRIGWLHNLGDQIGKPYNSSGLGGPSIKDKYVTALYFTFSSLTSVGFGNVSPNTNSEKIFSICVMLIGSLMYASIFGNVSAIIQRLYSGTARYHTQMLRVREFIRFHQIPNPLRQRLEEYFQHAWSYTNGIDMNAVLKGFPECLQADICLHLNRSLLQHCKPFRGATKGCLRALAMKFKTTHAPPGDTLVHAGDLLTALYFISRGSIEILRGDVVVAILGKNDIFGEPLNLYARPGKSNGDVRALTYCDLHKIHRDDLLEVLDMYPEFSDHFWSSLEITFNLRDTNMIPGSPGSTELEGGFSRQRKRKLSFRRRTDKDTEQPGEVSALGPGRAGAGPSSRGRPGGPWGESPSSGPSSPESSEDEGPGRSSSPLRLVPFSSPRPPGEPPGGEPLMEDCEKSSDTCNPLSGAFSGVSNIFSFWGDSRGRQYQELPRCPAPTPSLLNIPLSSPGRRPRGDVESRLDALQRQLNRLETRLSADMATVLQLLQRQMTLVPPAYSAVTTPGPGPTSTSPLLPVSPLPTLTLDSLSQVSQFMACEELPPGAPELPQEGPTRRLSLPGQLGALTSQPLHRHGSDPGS

Take `CC(=O)N[C@H]1CC[C@H](NC(=O)CN2CCN(c3nncc(-c4ccc(C)cc4)n3)CC2)CC1` [Compound A HBr]: the “Reduction in systolic blood pressure from baseline at week 4, dose cohort vs placebo, Mean (SEM)” value in data set [1] (12.5 mg BID) is given as 1.2 (5.2); in data set [1] (12.5 mg QD), 3.85 (6.1); in data set [1] (25 mg BID), 11.5 (5.1); in data set [1] (50 mg QD), 6.3 (4.9); in data set [1] (100 mg QD), 15 (5.4). The “Systolic BP by AOBP, Change (Wk 4 v. BL), Mean” value in data set [1] (12.5 mg BID, N 10) is listed as −5.3 mmHg; in data set [1] (12.5 mg QD, N 10), −7.9 mmHg; in data set [1] (25 mg BID, N 11), −15.5 mmHg; in data set [1] (50 mg QD, N 12), −10.3 mmHg; in data set [1] (100 mg QD, N 10), −19.0 mmHg. The “Systolic BP by AOBP, Change (Wk 4 v. BL), Median” value is −4.5 mmHg in data set [1] (12.5 mg BID, N 10); −2.25 mmHg in data set [1] (12.5 mg QD, N 10); −20.0 mmHg in data set [1] (25 mg BID, N 11); −8.75 mmHg in data set [1] (50 mg QD, N 12); −20.25 mmHg in data set [1] (100 mg QD, N 10). Further, the “Systolic BP by AOBP, Week 4, Mean” value in data set [1] (12.5 mg BID, N 10) was determined as 138 mmHg; in data set [1] (12.5 mg QD, N 10), 138.9 mmHg; in data set [1] (25 mg BID, N 11), 132.1 mmHg; in data set [1] (50 mg QD, N 12), 132.1 mmHg; in data set [1] (100 mg QD, N 10), 126.1 mmHg. Besides, the “Systolic BP by AOBP, Week 4, Median” value in data set [1] (12.5 mg BID, N 10) turned out to be 133 mmHg; in data set [1] (12.5 mg QD, N 10), 139 mmHg; in data set [1] (25 mg BID, N 11), 132 mmHg; in data set [1] (50 mg QD, N 12), 133 mmHg; in data set [1] (100 mg QD, N 10) it was 124 mmHg. In addition, the “median increase in serum potassium (K+)” value in data set [1] (100 mg QD cohort) amounted to 0.2 mmol/L. In addition, the “subjects with dose held or dose reduction related to elevated K+” value in data set [1] (100 mg QD cohort) is reported as “No subjects”.

`CC(=O)N[C@H]1CC[C@H](NC(=O)CN2CCN(c3nncc(-c4ccc(C)cc4)n3)CC2)CC1` [Compound A]: in data set [2] (monkey models, dose ratio), the “selectivity for CYP11B2 over CYP11B1 in vivo” value is 100 fold. Also, the “effect on PCCs” value in data set [2] (single oral dose 100 times greater than the dose that inhibited PAC production, ACTH-loaded monkeys) is listed as “did not affect PCCs; also recorded: PCCs were not affected”. In addition, in data set [3], the IC50 was greater than 30 µM. This compound also came in with an inhibition at 10 min, 30 μmol/L in data set [3] (human, HEK293 cells stably expressing the hERG channel, 30 μmol/L) of 27%.
